# Experiments:
# HeLa rtTA HIV∆Mls cells = assay: XTT cell metabolism/viability assay, HeLa; assay type: cell-based; conditions: for cell viability at dose required to reduce Gag expression by >80%: XTT and Trypan blue exclusion, 791 20 µM, 833 10 µM
# Description: Effects of compound treatment on cellular metabolism was assessed by an XTT-based in vitro toxicology assay kit (Sigma-Aldrich) or Trypan blue exclusion (Life Technologies) as proxy for degree of cytotoxicity and expressed relative to DMSO control treatment. For measurement of cell viability using XTT, culture media was removed after 24, 72, and 96 h of compound treatment, replaced with 20% XTT solution and incubated at 37 °C in a 5% CO2 humidified incubator for 2–6 h, and relative cell viability was measured in compound treated cells relative to DMSO-treated cells. Cell viability measurements in CEM-GXR cells are described above.
# [1] = tested on: HIV-1 Tat (p14, p16) and Gag; assay: Rescue of Tat/Gag expression by proteasome inhibitor MG132; assay type: cell-based; conditions: MG132 10 μM for 8 h in the presence of compound
# Description: To assess effect of compounds on HIV-1 Tat stability, the decay of HIV-1 Tat levels was compared between DMSO-treated and compound-treated protein lysates in the presence of cycloheximide. In the first set of experiments, HIV-1 gene expression was induced with doxycylin (dox) for 24 h then 10 μg/mL cycloheximide was added to block new protein synthesis in combination with either DMSO or the compounds. Cells were harvested every 2 h and Tat protein levels measured by western blot. Quantification of the relative intensity of the detected bands was performed using ImageLab software (BioRad) and normalized to corresponding bands of the loading control (GAPDH) from at least three independent experiments. To determine whether the compounds’ effect on HIV-1 gene expression could be reversed by inhibition of the proteasome, compound treatment assay was performed as previously described with the addition of 10 μM MG132 (Sigma-Aldrich) to compound-treated cells 8 h prior to harvesting. Equal amounts of protein were run on 13 or 14% gels by SDS-PAGE, blotted and probed with antibodies for Tat and GAPDH. Quantification of the relative intensity of the detected bands was performed using ImageLab software (BioRad) and normalized to corresponding bands of the loading control (GAPDH) from at least three independent experiments.
# [2] = Trypan blue exclusion, PBMCs; assay type: cell-based, human; conditions: human, peripheral blood mononuclear cells (PBMCs)
# Description: To examine the effect of compounds on viral replication, studies were carried out in peripheral blood mononuclear cells (PBMCs). PBMCs were isolated from healthy (HIV-uninfected) volunteer blood donors as described by Dobson-Belaire et al.. Informed consent was obtained from participants in accordance with the guidelines for conduct of clinical research at the University of Toronto and St. Michael’s Hospital, Toronto, Ontario, Canada. Stored PBMCs were thawed, washed with RPMI 1640 complete medium and cultured in RPMI 1640 complete medium containing 2 μg/mL of PHA-L (Sigma-Aldrich) and 20 U/mL of IL-2 (BD Pharmingen) for 72 h. Subsequently, cells were counted and a portion of the cells was separated to another tube for uninfected control treatments. The remaining PBMCs were resuspended in media containing HIV-1 BaL at a multiplicity of infection (MOI) of approximately 0.01 and infected by spinoculation, following which cells were washed twice with room temperature RPMI 1640 complete medium and resuspended to a concentration of 5 × 10^5 cells/mL in complete RPMI 1640 containing 20 U/mL of IL-2. Compounds were added to infected PBMCs or uninfected control PBMCs. Azidothymidine (AZT, Sigma-Aldrich) was used as control treatment at a final concentration of 3.74 μM. On day 4 post infection, culture medium was replenished with the compounds and IL-2 in fresh complete RPMI 1640. On days 2, 4, 6 and 8 post infection, culture supernatant was harvested, virus lysed by adjusting to 1% TritonX-100 and stored at −20 °C for p24 antigen ELISA. A fraction of the culture was harvested to assess percent cell viability by trypan blue exclusion using Glasstic slides (Kova). Relative percent cell viability in compound treated samples versus DMSO-control treated samples was calculated as follows: (total viable cells/total cells)compound/(total viable cells/total cells)DMSO.
Compound,"toxicity on extended culture (cell proliferation by XTT) (HeLa rtTA HIV∆Mls cells; 1, 3 and 4 days post-treatment, in comparison to 833 and 892 (Figure S5))",cell viability at dose required to reduce Gag expression by >80% (HeLa rtTA HIV∆Mls cells),accumulation of both Tat isoforms on addition of MG132 [1],CC50 [2] [µM],"viability at 6 days post infection ([2]; PBMCs, 6 days post infection, concentrations up to 7.5 µM, read-out: cell viability) [%]",mitochondrial function by XTT (HeLa rtTA HIV∆Mls cells; up to 10 µM)
"Cc1cc(NCc2cccnc2)n2ncc(-c3ccc(Cl)cc3)c2n1 [Compound 791, 3-(4-chlorophenyl)-5-methyl-N-(3-pyridinylmethyl)pyrazolo[1,5-a]pyrimidin-7-amine]",reduced toxicity,not affected,significant accumulation,> 10,> 80,
"O=C(NC(=S)NNC(=O)c1ccccc1O)c1ccc(-c2ccccc2)cc1 [Compound 833, N-([2-(2-hydroxybenzoyl)hydrazino]carbonothioyl}-4-biphenylcarboxamide]",,not affected,significant accumulation,3,,some reduction in mitochondrial function
"COc1ccc(C=NNC(=O)c2ccccc2O)cc1O [Compound 892, 2-hydroxy-N′-(3-hydroxy-4-methoxybenzylidene)benzohydrazide]",,,significant accumulation,4.5,,

# From paper PMC5267425, “Identification of small molecule modulators of HIV-1 Tat and Rev protein accumulation” (Retrovirology, 2017)
